Laboratory results as given in patent publication US20250296938A1, “Compounds that Interact with the Ras Superfamily for the Treatment of Cancers, Inflammatory Diseases, Rasopathies, and Fibrotic Disease” (SHY Therapeutics, LLC, priority 2018, published 2025).

Columns and labels:
MAPK phosphorylation = assay: MAPK cell-based phosphorylation assay (ELISA or Western), PANC-1; details: Homo sapiens, 10 μM
Description: Cell lines: Tumor-derived pancreatic cancer cell line PANC-1 was purchased from ATCC and were and grown in DMEM-High Glucose supplemented with penicillin (100 U/mL), streptomycin (100 μg/mL), and 10% heat-inactivated FBS at 37° C. in a humidified incubator with 5% CO2.
Method: Cells were plated at 7500 cells/well density in a 96-well plate, allowed 3 hours to adhere to the plate, then starved in DMEM plus 0.5% FBS overnight. The small molecules to be tested were added to the cells in the final concentration of 10 μM in the presence of 0.3% DMSO for 6 hours incubation at 37° C. For IC50 value determination, serial dilutions of compounds were added to cells under the same conditions. Next, cells were stimulated with 1.5 ng/mL EGF for 15 minutes followed by cell fixation with 4% formaldehyde in PBS at room temperature for 20 minutes. Cell-direct ELISA determined phosphorylation level of MAPK.
Cell-direct ELISA: For each well, cells were permeabilized with 0.1% PBS-Triton X-100, quenched with 0.06% H2O2 in 0.1% PBS-Triton X-100, and probed with anti-phospho-MAPK antibodies (R&D Systems) followed by HRP-conjugated secondary antibody (Jackson Immunoresearch, West Grove, PA). Next, a 50 μM solution of the fluorescent substrate AmpliFlu Red (Sigma) was added and incubated at RT for 20 minutes. At the end of the incubation time, phosphorylation level of MAPK was determined by measuring fluorescence at 595 nm using SpectraMax M3 plate reader (Molecular Devices).
Cell lines: Human NSCLC cells NCI-H1975 and NCI-H1299, and tumor-derived pancreatic cancer cell lines Panc-1, MIA-PaCa-2, and BxPC3, were all purchased from American Type Culture Collection and grown in complete RPMI medium (BxPC3, NCI-H1975 and NCI-H1299) or DMEM-High Glucose (Panc1 and MIA-PaCa-2), supplemented with penicillin (100 U/mL), streptomycin (100 μg/mL), and 10% heat-inactivated FBS at 37° C. in a humidified incubator with 5% CO2.
(§1) Method: Cells were plated at 350000 cells/well density in a 12-well plate, allowed 3 hours to adhere to the plate, then starved in the appropriate medium in the presence of 0.5% FBS overnight. The small molecules to be tested were added to the cells in the final concentration of 10 μM in the presence of 0.3% DMSO for 6 hours incubation at 37° C. For IC50 value determination, serial dilutions of compounds were added to cells under the same conditions. Next, cells were stimulated with 1.5 ng/ml EGF for 15 minutes then cells were lysed with lysis buffer containing 1% Triton X-100, EDTA, and Halt™ Protease & Phosphatase Inhibitor Cocktail (Thermo Scientific). Protein concentration was assessed by BCA protein assay (Thermo Scientific). Phosphorylation level of MAPK was determined by western blot.
(§2) Western blot protocol: Equal amounts of protein (15-50 μg) were separated by SDS-PAGE and transferred to nitrocellulose membranes (Invitrogen by Thermo Fisher Scientific). The membrane was stained with Ponceau S Stain (Boston BioProducts) to verify uniform protein loading. Membranes were blocked with 10% milk and phosphorylation levels of MAPK were assessed by incubating overnight at 4° C. with anti-phospho-p44/42 (Thr202/Tyr204) antibody (Cell Signaling) followed by HRP-conjugated secondary antibody (Jackson Immunoresearch, West Grove, PA). Bands were incubated in Amersham ECL Prime Western Blotting Detection Reagent (GE Healthcare) and visualized using the ChemiDoc MP imaging system (Bio-Rad).

AKT phosphorylation = assay: Western AKT cell-based phosphorylation assay, PANC-1; details: Homo sapiens
Description: Human tumor-derived pancreatic cancer cell line Panc-1 was purchased from American Type Culture Collection and grown in complete DMEM-High Glucose supplemented with penicillin (100 U/mL), streptomycin (100 μg/mL), and 10% heat-inactivated FBS at 37° C. in a humidified incubator with 5% CO2.
as §1, with “C.” for “C. For IC50 value determination, serial dilutions of compounds were added to cells under the same conditions.”, “Akt” for “MAPK”
as §2, with “Akt” for “MAPK”, “anti-phospho-Akt (Ser473)” for “anti-phospho-p44/42 (Thr202/Tyr204)”

[1] = 6 hours, EGF stimulation, PANC-1

Compound | inhibition at 10 µM (MAPK phosphorylation; [1]) [%] | inhibition at 10 µM (AKT phosphorylation; [1]) [%] | inhibition at 10 µM (MAPK phosphorylation; PANC-1 (Table 4C)) [%] | inhibition at 10 µM (AKT phosphorylation; PANC-1 (Table 4C)) [%]
O=C(NC1CCC1)c1nc(-c2ccccn2)nc(O)c1O [drawing 461] | 0 | 0 | – | –
CC(C)NC(=O)c1nc(-c2nccn2C)nc(O)c1O [drawing 462] | 0 | 0 | – | –
CCN(CC)C(=O)c1nc(-c2nccn2C)nc(O)c1O [drawing 463] | 0 | 0 | – | –
Cn1ccnc1-c1nc(O)c(O)c(C(=O)N2CCCC2)n1 [drawing 464] | 0 | 0 | – | –
Cn1ccnc1-c1nc(O)c(O)c(C(=O)NC2CCCC2)n1 [drawing 465] | 0 | 0 | – | –
Cn1ccnc1-c1nc(O)c(O)c(C(=O)N2CCCCC2)n1 [drawing 466] | 0 | 0 | – | –
Cn1ccnc1-c1nc(O)c(O)c(C(=O)NC2CCC2)n1 [drawing 467] | 0 | 0 | – | –
COC(=O)c1nc(-c2nccn2C)nc(O)c1O [drawing 468] | 0 | 0 | – | –
COc1nc(-c2ccccn2)nc(Nc2cnn(C)c2)c1OC [drawing 469] | 0 | 0 | – | –
COCCn1cc(Nc2nc(-c3ccccn3)nc(OC)c2OC)cn1 [drawing 470] | 0 | 0 | – | –
COC1CCN(c2nc(-c3nccn3C)nn3cc(-c4ccccc4)c(-c4ccccc4)c23)C1 (stereo not shown) [drawing 471] | 51 to 75 | 0 | – | –
COc1c(O)nc(-c2ccccn2)nc1Oc1ccc(C(=O)N(C)C)cc1 [drawing 479] | – | – | 0 | 0
COc1c(O)nc(-c2ccccn2)nc1Nc1ccccc1 [drawing 480] | – | – | 0 | 0
CCn1cc(Nc2nc(-c3ccccn3)nc(O)c2OC)cn1 [drawing 481] | – | – | 0 | 0
CCOc1cccc(Nc2nc(-c3ccccn3)nc(O)c2OC)c1 [drawing 482] | – | – | 0 | 0
COc1cccc(-c2sc3nc(-c4nccn4C)nc(NC4CCC(OC)C4)c3c2-c2ccccc2)c1F (stereo not shown) [drawing 483] | – | – | 76 to 100 | 76 to 100
COc1cccc(-c2sc3nc(-c4nccn4C)nc(N[C@@H]4CC[C@H](OC)C4)c3c2-c2ccccc2)c1F [drawing 484] | – | – | 76 to 100 | 76 to 100
COC1CCC(Nc2nc(-c3nccn3C)nc3sc(-c4cccc(O)c4F)c(-c4ccccc4)c23)C1 (stereo not shown) [drawing 485] | – | – | 76 to 100 | 0
COc1c(F)cccc1-c1sc2nc(-c3nccn3C)nc(NC3CCC(OC)C3)c2c1-c1ccccc1 (stereo not shown) [drawing 486] | – | – | 76 to 100 | 76 to 100
COc1c(F)cccc1-c1sc2nc(-c3nccn3C)nc(N[C@@H]3CC[C@H](OC)C3)c2c1-c1ccccc1 [drawing 487] | – | – | 76 to 100 | 76 to 100
